For 1 molecule, IC50 results are on record in paper doi:10.1101/2020.06.19.161828v1 (biorxiv, 2020).

The structures appear in SMILES notation.

The assay concerns the target T1, LmME (Leishmania major, UniProt Q4QAQ6).
T1 sequence (Q4QAQ6 1-573): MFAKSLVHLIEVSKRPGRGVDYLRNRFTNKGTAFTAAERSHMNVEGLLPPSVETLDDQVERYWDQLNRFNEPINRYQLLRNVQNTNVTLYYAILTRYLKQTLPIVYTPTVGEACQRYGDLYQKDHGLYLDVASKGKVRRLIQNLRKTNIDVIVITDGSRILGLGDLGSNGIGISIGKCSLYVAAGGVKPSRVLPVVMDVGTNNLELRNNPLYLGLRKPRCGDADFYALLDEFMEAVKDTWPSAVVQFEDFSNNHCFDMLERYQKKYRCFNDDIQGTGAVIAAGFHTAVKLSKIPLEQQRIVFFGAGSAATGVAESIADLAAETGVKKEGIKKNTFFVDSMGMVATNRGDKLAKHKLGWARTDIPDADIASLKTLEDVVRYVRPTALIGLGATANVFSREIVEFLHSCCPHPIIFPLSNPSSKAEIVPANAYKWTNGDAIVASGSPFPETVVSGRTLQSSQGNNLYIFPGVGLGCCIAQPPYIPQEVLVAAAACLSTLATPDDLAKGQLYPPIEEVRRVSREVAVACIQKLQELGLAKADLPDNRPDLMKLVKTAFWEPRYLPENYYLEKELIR
Kind of assay: spectrophotometric NADPH assay at […] nm, malate decarboxylation. The assay is classed as biochemical.

What is called IC50 is the concentration that inhibits the measured activity by half. A high value points to a need for much substance. Molecule `c1ccc(-c2nnc3sc(Cc4ccc5c(c4)CCCC5)nn23)nc1` [ATR7-010] displayed an IC50 of 1.59 µM.
